Values quoted from earlier work in PubChem BioAssay AID1259410 (Chemical Carcinogenesis Research Information System (CCRIS), 2018).

Test system: rodent tumor promotion studies, tumor incidence
Assay: CCRIS tumor promotion studies

CN(CCCC(=O)c1cccnc1)N=O
outcome (Carcinogen: Smoke, Doses [Carcinogen]: Exposure to smoke from non-filtered cigarettes for 6 mo, urine cotinine levels suggest equivalence to 1 pack a day human, Doses [Promoter]: 50 mg/kg every 4 wk for total of 4 doses, Route [Carcinogen]: Inhalation, Route [Promoter]: Subcutaneous, Species: Ferret, Strain/Sex: Male ( 9, 12/Group)): lung: tumors: squamous cell carcinomas (1/12), adenocarcinomas (3/12) and adenos

CC[C@H](C)[C@H](N)C(=O)O
outcome (Carcinogen: N-BUTYL-N-(4-HYDROXYBUTYL)NITROSAMINE, 3817-11-6, Doses [Carcinogen]: 0.05% IN DRINKING WATER FOR 4 WK, Doses [Promoter]: 0, 2% IN DIET BEGINNING POST CARCINOGEN TREATMENT AND CONTINUING FOR DURATION OF STUDY (STUDY DURATION: 40 WK), Route [Carcinogen]: ORAL, Route [Promoter]: ORAL, Species: RAT, Strain/Sex: F344/MALE): bladder: carcinoma

O=S(=O)(O)NC1CCCCC1
outcome (Carcinogen: METHYLNITROSOUREA, Doses [Carcinogen]: BLADDER IMP, Doses [Promoter]: IN DIET, Route [Carcinogen]: BLADDER IMPLANT, Route [Promoter]: ORAL, Species: RAT, Strain/Sex: WISTAR/FEMALE): urinary bladder

Nc1nc2ncc(CNc3ccc(C(=O)N[C@@H](CCC(=O)O)C(=O)O)cc3)nc2c(=O)[nH]1
outcome (Carcinogen: N-ETHYL-N-(2-HYDROXYETHYL)NITROSAMINE, Doses [Carcinogen]: 0.1% IN DRINKING WATER FOR 1 WK, Doses [Promoter]: 300 MG/KG 1/WK FOR 8 WK THEN 100 MG/KG 1/WK FOR 27 WK, Route [Carcinogen]: ORAL, Route [Promoter]: SUBCUTANEOUS, Species: RAT, Strain/Sex: F344/MALE): kidney: renal cell tumor

Nc1ncn([C@@H]2O[C@H](CO)[C@@H](O)[C@H]2O)c(=O)n1
outcome (Carcinogen: DIETHYLNITROSAMINE, 55-18-5, Doses [Carcinogen]: 50 MG/KG IN SALINE ADMINISTERED ONCE 18 HR AFTER PARTIAL HEPATECTOMY, Doses [Promoter]: 0, 2.5, 10 MG/KG 2/WK FOR 9 MO BEGINNING POST CARCINOGEN DOSE (STUDY DURATION: 18 MO), Doses [Promoter]: 0, 2.5, 10 MG/KG 2/WK FOR 9 MO BEGINNING POST CARCINOGEN DOSE (STUDY DURATION: 18 MO), Route [Promoter]: INTRAPERITONEAL, Species: RAT, Strain/Sex: F344/MALE): liver: hepatocellular carcinoma
outcome (Carcinogen: DIETHYLNITROSAMINE, 55-18-5, Doses [Carcinogen]: 80 MG/KG 1/WK FOR 5 WK, Doses [Promoter]: 0, 5, 10 MG/KG INJECTED 4, 24, AND 48 HR AFTER EACH CARCINOGEN EXPOSURE (STUDY DURATION: 6 MO), Doses [Promoter]: 0, 5, 10 MG/KG INJECTED 4, 24, AND 48 HR AFTER EACH CARCINOGEN EXPOSURE (STUDY DURATION: 6 MO), Route [Carcinogen]: INTRAPERITONEAL, Route [Promoter]: INTRAPERITONEAL, Species: RAT, Strain/Sex: BD6/MALE): liver: tumor

CCC(=O)Oc1ccc2c(c1)CC[C@@H]1[C@@H]2CC[C@]2(C)[C@@H](OC(=O)CC)CC[C@@H]12
outcome (Carcinogen: 1,2-DIMETHYLHYDRAZINE, 540-73-8, Doses [Carcinogen]: 8 MG/KG BW 1/WK FOR 20 WK, Doses [Promoter]: 0, 0.1 ML OF A SOLUTION IN OLIVE OIL 1/WK FOR 30 WK ADMINISTERED 1 DAY PRIOR TO EACH CARCINOGEN DOSE AND CONTINUING FOR, Route [Carcinogen]: SUBCUTANEOUS, Route [Promoter]: SUBCUTANEOUS, Species: MOUSE, Strain/Sex: C3H/FEMALE): uterus: sarcoma

Oc1ccc(Cl)cc1Cc1ccccc1
outcome (Carcinogen: 7,12-DIMETHYLBENZ[A]ANTHRACENE, 57-97-6, Doses [Carcinogen]: 50 UG IN ACETONE ONCE, Doses [Promoter]: 3 MG IN ACETONE 3/WK FOR 51 WK (STUDY DURATION: 52 WK), Route [Carcinogen]: DERMAL, Route [Promoter]: DERMAL, Species: MOUSE, Strain/Sex: CD-1/FEMALE): skin: papilloma

CCCCCC1(CCCCCC(=O)OC23C(OC(C)=O)C(C)C4(O)C(C=C(CO)CC5(O)C(=O)C(C)=CC54)C2C3(C)C)OCC(C)(C)N1[O] (stereo not given)
outcome (Carcinogen: 7,12-DIMETHYLBENZ[A]ANTHRACENE, 57-97-6, Doses [Carcinogen]: 100 NMOL ONCE, Doses [Promoter]: 0, 20 NMOL 2/WK FOR 24 WK BEGINNING 1 WK POST CARCINOGEN DOSE (STUDY DURATION: 25 WK), Route [Carcinogen]: DERMAL, Route [Promoter]: DERMAL, Species: MOUSE, Strain/Sex: NMRI/FEMALE): skin: tumor

C=C[C@@]1(C)CC[C@](C)(C(C)C)c2cc3c4c(c[nH]c4c21)C[C@@H](CO)NC(=O)[C@H](C(C)C)N3C
outcome (Carcinogen: 7,12-DIMETHYLBENZ[A]ANTHRACENE, 57-97-6, Doses [Carcinogen]: 100 UG ONCE, Doses [Promoter]: 0, 5.5 NMOL 2/WK FOR 19 WK BEGINNING 1 WK POST CARCINOGEN DOSE (STUDY DURATION: 20 WK), Route [Carcinogen]: DERMAL, Route [Promoter]: DERMAL, Species: MOUSE, Strain/Sex: CD-1/FEMALE): skin: tumor
outcome (Carcinogen: 7,12-DIMETHYLBENZ[A]ANTHRACENE, Doses [Carcinogen]: 100 UG ONCE, Doses [Promoter]: 2.5 UG IN ACETONE 2/WK FOR 30 WK, Route [Carcinogen]: DERMAL, Route [Promoter]: DERMAL, Species: MOUSE, Strain/Sex: CD-1/FEMALE): integumentary system (skin): papilloma, carcinoma

CC(=O)O[C@]1(C(C)=O)CC[C@H]2[C@@H]3C[C@H](C)C4=CC(=O)CC[C@]4(C)[C@H]3CC[C@@]21C
outcome (Carcinogen: 7,12-DIMETHYLBENZ[A]ANTHRACENE, 57-97-6, Doses [Carcinogen]: 1 MG IN 0.1 ML COTTONSEED OIL 1/WK AT WKS 9,10,12 AND 13 OF AGE, Doses [Promoter]: 0, 20 MG EACH IN 2 PELLETS IMPLANTED IN THE INTERSCAPULAR AREA AT 6 WK OF AGE (STUDY DURATION: 15 MO), Route [Carcinogen]: GAVAGE, Route [Promoter]: SUBCUTANEOUS IMPLANT, Species: MOUSE, Strain/Sex: CD2F1/FEMALE): mammary gland: tumor
outcome (Carcinogen: METHYLNITROSOUREA, 684-93-5, Doses [Carcinogen]: 50 MG/KG BW ONCE, Doses [Promoter]: 0, 40 MG DEPOT EVERY 3 MO BEGINNING 1 WK POST CARCINOGEN DOSE (STUDY DURATION: 9 MO), Route [Carcinogen]: INTRAPERITONEAL, Route [Promoter]: SUBCUTANEOUS, Species: MOUSE, Strain/Sex: BALB/FEMALE): mammary gland: carcinoma
outcome (Carcinogen: METHYLNITROSOUREA, 684-93-5, Doses [Carcinogen]: 50 MG/KG BW ONCE, Doses [Promoter]: 0, 40 MG DEPOT EVERY 3 MO BEGINNING 1 WK PRIOR TO CARCINOGEN DOSE (STUDY DURATION: 9 MO), Route [Carcinogen]: INTRAPERITONEAL, Route [Promoter]: SUBCUTANEOUS, Species: MOUSE, Strain/Sex: BALB/FEMALE): mammary gland: carcinoma

O=[As](O)(O)O
outcome (Carcinogen: 7,12-DIMETHYLBENZ[A]ANTHRACENE [57-97-6], Doses [Carcinogen]: 50 UG 2 X A WK FOR 2 WKS (STUDY DURATION: 25 WKS), Doses [Promoter]: 25 MG/L IN DRINKING WATER FOR 25 WKS, Route [Carcinogen]: DERMAL (SKIN PAINTING), Route [Promoter]: ORAL (DRINKING WATER), Species: MOUSE, Strain/Sex: SWISS NUDE HAIRLESS/MALE): skin; papillomas

C=C1/C(=C\C=C2/CCC[C@]3(C)[C@@H]([C@H](C)CCC(F)(F)C(C)(C)O)CC[C@@H]23)C[C@H](O)C[C@H]1O
outcome (Carcinogen: 7,12-DIMETHYLBENZ[A]ANTHRACENE, 57-97-6, Doses [Carcinogen]: 50 NMOL IN 200 µL ACETONE 2/WK FOR 16 WK, Doses [Promoter]: 0, 0.05, 0.1 NMOL IN 200 µL ACETONE APPLIED 1 HR PRIOR TO CARCINOGEN DOSES 2/WK FOR 16 WK (STUDY DURATION: 16 WK), Doses [Promoter]: 0, 0.05, 0.1 NMOL IN 200 µL ACETONE APPLIED 1 HR PRIOR TO CARCINOGEN DOSES 2/WK FOR 16 WK (STUDY DURATION: 16 WK), Route [Carcinogen]: DERMAL, Route [Promoter]: DERMAL, Species: MOUSE, Strain/Sex: CD-1/FEMALE): skin: tumors

O=[N+]([O-])c1ccc2ccc3cccc4ccc1c2c34
outcome (Carcinogen: POLYCHLORINATED BIPHENYLS, 1336-36-3, Doses [Carcinogen]: 2.5 MG/KG ONCE, Doses [Promoter]: 0, 1575 MG/KG IN DMSO ADMINISTERED IN 17 DOSES 3/WK BEGINNING POST CARCINOGEN TREATMENT (STUDY DURATION: 18 WK), Route [Carcinogen]: INTRAPERITONEAL, Route [Promoter]: INTRAPERITONEAL, Species: MOUSE, Strain/Sex: A/J/MALE): lung: adenoma and adenocarcinoma

O=NN(CCO)CCO
outcome (Carcinogen: NITROSO(2-OXOPROPYL)AMINE, 60599-38-4, Doses [Carcinogen]: 12 MG/ML IN ETHYL ACETATE/CORN OIL (1:1) 2/WK FOR 2 WK, Doses [Promoter]: 0, 100 MG/L IN DRINKING WATER 5 D/WK FOR 40 WK BEGINNING 1/WK POST CARCINOGEN TREATMENT (STUDY DURATION: 43 WK), Route [Carcinogen]: GAVAGE, Route [Promoter]: ORAL, Species: RAT, Strain/Sex: F344/MALE): kidney: renal cell carcinoma

Cn1cnc([N+](=O)[O-])c1Sc1ncnc2nc[nH]c12
outcome (Carcinogen: UV IRRADIATION, Doses [Carcinogen]: 0.53 J/CM2 INCREASED BY 20% EVERY 2 WK TO 1.60 J/CM2 AND MAINTAINED AT 1.60 J/CM2 UNTIL DEATH, ADMINISTERED 5 D/WK FOR 1, Doses [Promoter]: 0, 15 UG/G BEGINNING 2 WK POST FIRST CARCINOGEN DOSE ADMINISTERED 2 HR PRIOR TO EACH CARCINOGEN DOSE (STUDY DURATION: 30, Route [Carcinogen]: DERMAL, Route [Promoter]: INTRAPERITONEAL, Species: MOUSE, Strain/Sex: SKH/HRL/FEMALE): skin: tumor

C=C(CC(=O)OC)C(=O)OC
outcome (Carcinogen: N-METHYLNITROSOUREA, 684-93-5, Doses [Carcinogen]: 100 PPM IN DRINKING WATER FOR 15 WK, Doses [Promoter]: 0, 0.5% IN DRINKING WATER FOR 37 WK BEGINNING POST CARCINOGEN TREATMENT (STUDY DURATION: 52 WK), Route [Carcinogen]: ORAL, Route [Promoter]: ORAL, Species: RAT, Strain/Sex: F344/MALE): glandular stomach: adenoma, carcinoma
